From the supplement of paper PMC11451515

Columns and labels:
Assay in all cases: AUC of viability dose-response curve (% viability x log10 dose units); higher = less sensitive
Settings in all cases: 48 h
P12-Ichikawa = tested on: P12-Ichikawa
Outline: (§1)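 Viability of medium-adapted leukemia cells was measured by CellTiter-Glo One luminescence after 48 h at 37°C with library compounds in DMSO. Doses were 11 threefold steps from 47 μM to 0.79 nM, in 1536-well plates at 500 or 1000 cells/well. Signals were normalised per plate to DMSO and cell-free wells and fitted with a four-parameter log-logistic model on log10 dose. Area under the curve was integrated by trapezoidal rule, with curves exceeding full viability scaled and failed quality-control curves removed.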

SEM cells = tested on: SEM cells
Outline: as §1

NOMO1 = tested on: NOMO1
Outline: as §1

[1] = RPMI 5 mM glucose + 10% dialyzed FBS

Row | SMILES | AUC of viability dose-response curve (P12-Ichikawa; HPLM + 10% dialyzed FBS) | AUC of viability dose-response curve (P12-Ichikawa; RPMI 5 mM glucose + 10% FBS) | AUC of viability dose-response curve (P12-Ichikawa; [1]) | AUC of viability dose-response curve (SEM cells; HPLM + 10% dialyzed FBS) | AUC of viability dose-response curve (SEM cells; RPMI 5 mM glucose + 10% FBS) | AUC of viability dose-response curve (SEM cells; [1]) | AUC of viability dose-response curve (NOMO1; HPLM + 10% dialyzed FBS) | AUC of viability dose-response curve (NOMO1; RPMI 5 mM glucose + 10% FBS) | AUC of viability dose-response curve (NOMO1; [1])
1 | CN(C/C=C/C#CC(C)(C)C)Cc1cccc2ccccc12 | 475 | 468 | 444 | 452 | 450 | 455 | 458 | 440 | 447
2 | CC(C)Oc1cc(Nc2nc(N[C@@H](C)c3ccc(F)cn3)ncc2Cl)n[nH]1 | 344 | 349 | 366 | 319 | 310 | 291 | 449 | 409 | 412
3 | C1CCC(C(CC2CCCCN2)C2CCCCC2)CC1 (stereo unspecified) | 470 | 457 | 465 | 429 | 429 | 405 | 451 | 454 | 446
4 | OC(=O)\C1=C\N(C2=CC=C(F)C=C2)C3=C(C=C(F)C(=C3)N4CCNCC4)C1=O | 457 | 464 | 452 | 446 | 476 | 448 | 447 | 475 | 451
5 | CC(C)[C@@H](C[S+](=O)([O-])C(C)C)N1C(=O)[C@@](C)(CC(=O)O)C[C@H](c2cccc(Cl)c2)[C@H]1c1ccc(Cl)cc1 | 278 | 320 | 335 | 355 | 289 | 360 | 306 | 357 | 362
6 | CCOc1ccc(Nc2nc(-c3c(C)nc4ccccn34)cs2)cc1 | 225 | 232 | 271 | 232 | 213 | 263 | 270 | 252 | 281
7 | Cc1cccc(C#Cc2ccccc2)n1 | 456 | 445 | 450 | 456 | 455 | 449 | 461 | 464 | 463
8 | C[N+]1(C)[C@@H]2C[C@@H](OC(=O)[C@H](CO)c3ccccc3)C[C@H]1[C@@H]1O[C@@H]12.[Br-] | 456 | 424 | 435 | 448 | 467 | 462 | 457 | 423 | 442
9 | Cn1c(Nc2ccc(C(F)(F)F)cc2)nc2cc(Oc3ccnc(-c4nc(C(F)(F)F)c[nH]4)c3)ccc21 | 441 | 425 | 431 | 402 | 389 | 395 | 444 | 454 | 446
10 | CCC1(c2ccc(N)cc2)CCC(=O)NC1=O (stereo unspecified) | 449 | 427 | 434 | 433 | 424 | 401 | 463 | 473 | 465
11 | CCc1c(C(=O)C(N)=O)c2c(OCC(=O)O)cccc2n1Cc1ccccc1 | 471 | 460 | 452 | 462 | 464 | 461 | 442 | 465 | 463
12 | OC[C@H](Cc1ccccc1)Nc1nc(Oc2ccc3c(c2)CCC3)nc2c1ncn2Cc1ccc(-c2ccccc2)cc1 | 454 | 431 | 418 | 455 | 428 | 432 | 463 | 434 | 458
13 | C[S+](=O)([O-])N(Cc1ccco1)CC(O)Cn1c2ccccc2c2ccccc21 (stereo unspecified) | 436 | 414 | 409 | 407 | 396 | 381 | 421 | 415 | 417
14 | CCOC(=O)N1CCN(/[N+]([O-])=N/Oc2ccc([N+](=O)[O-])cc2[N+](=O)[O-])CC1 | 447 | 425 | 398 | 303 | 324 | 337 | 462 | 429 | 412
